# Experiments:
# [1] = tested on: Wistar male rats; assay: Evaluation of catalepsy (bar test); format: in vivo, rat
# Procedure: The test was performed on Wistar male rats (N=7 animals); catalepsy was evaluated by means of a metal bar measuring 0.6 cm in diameter positioned at a distance of 10 cm from the work surface. The substance studied, in the form of maleic acid salt (ST1699), was administered subcutaneously 30 minutes prior to the evaluation. The subsequent evaluation times were 60, 90, 120, 180, 240, and 300 minutes after administration.
# By means of the test used for evaluating catalepsy in the rat, ST1699 affinity for the D2 receptor subtype of the nigrostriatal dopaminergic system was verified.
# Table 4 gives the percentages of animals presenting catalepsy at the various different times after administration of subacute doses of the study compound.
# [2] = tested on: 5-HT2 versus D2 receptor; assay: Classification of typical and atypical antipsychotics by 5-HT2 versus D2 pKi ratio and Log Y score; conditions: for LogY: Log Y score smaller than 6.48 = atypical profile
# [3] = target: T1, H1 histamine receptor (Rattus norvegicus, UniProt P31390); assay: Interaction with H1 receptors, [3H]-pyrilamine binding, rat cortex membranes; conditions: Table 1; mean and standard deviation; read-out: H1 Ki ± ds
# T1 construct: from tissue; host or cells: rat cortex membranes
# T1 sequence (P31390 whole entry): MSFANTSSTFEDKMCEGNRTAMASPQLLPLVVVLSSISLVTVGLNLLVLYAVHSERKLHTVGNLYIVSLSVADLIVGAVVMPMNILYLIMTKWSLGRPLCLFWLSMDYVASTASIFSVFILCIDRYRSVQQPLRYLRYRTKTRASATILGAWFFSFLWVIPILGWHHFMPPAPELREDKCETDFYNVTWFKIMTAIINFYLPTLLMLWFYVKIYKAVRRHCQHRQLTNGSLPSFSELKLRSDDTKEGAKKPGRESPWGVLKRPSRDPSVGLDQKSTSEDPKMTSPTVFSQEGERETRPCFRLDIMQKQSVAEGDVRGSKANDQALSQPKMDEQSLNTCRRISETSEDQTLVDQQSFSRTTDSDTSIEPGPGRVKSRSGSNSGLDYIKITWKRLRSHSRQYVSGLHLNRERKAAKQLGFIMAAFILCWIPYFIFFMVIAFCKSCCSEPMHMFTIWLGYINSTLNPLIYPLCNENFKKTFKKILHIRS
# Procedure: Interaction with H1 Receptors
# Aspecific binding was determined in the presence of 100 μM of pyrilamine.
smiles,measurement,setting,value
"CN1CCN(C2=Cn3cccc3Sc3ccc(Cl)cc32)CC1 [ST1699, 7-chloro-9-(4-methyl-1-piperazinyl)pyrrolo[2,1-b][1,3]benzothiazepine]",percentage of animals presenting catalepsy,"[1]; 0.3 mg/kg subcutaneously, 30 min after administration",0%
same,percentage of animals presenting catalepsy,"[1]; 0.3 mg/kg subcutaneously, 60 min after administration",0%
same,percentage of animals presenting catalepsy,"[1]; 0.3 mg/kg subcutaneously, 90 min after administration",17%
same,percentage of animals presenting catalepsy,"[1]; 0.3 mg/kg subcutaneously, 120 min after administration",17%
same,percentage of animals presenting catalepsy,"[1]; 0.3 mg/kg subcutaneously, 180 min after administration",33%
same,percentage of animals presenting catalepsy,"[1]; 0.6 mg/kg subcutaneously, 30 min after administration",33%
same,percentage of animals presenting catalepsy,"[1]; 0.6 mg/kg subcutaneously, 60 min after administration",66%
same,percentage of animals presenting catalepsy,"[1]; 0.6 mg/kg subcutaneously, 90 min after administration",83%
same,percentage of animals presenting catalepsy,"[1]; 0.6 mg/kg subcutaneously, 120 min after administration",100%
same,percentage of animals presenting catalepsy,"[1]; 0.6 mg/kg subcutaneously, 180 min after administration",100%
same,occurrence of catalepsy,"[1]; in words, highest dose among those used (0.6 mg/kg), effects comparable to 0.2 mg/kg of haloperidol",induced the occurrence of catalepsy
"Cc1ccc2n1C=C(N1CCN(C)CC1)c1ccccc1S2 [ST2092, 1-Methyl-9-(4-methylpiperazin-1-yl)pyrrolo[2,1-b][1,3]benzothiazepine]",LogY,[2],3.19
same,binding affinity at 5 HT2 receptor compared with D2 dopamine receptor,[2]; in words,greater than D2 dopamine receptor
"CN1CCN(C2=Cn3cccc3Sc3ccc(Cl)cc32)CC1 [ST1508, 7-chloro-9-(4-methyl-1-piperazinyl)pyrrolo[2,1-b][1,3]benzothiazepine]",Ki,[3],2.7 ± 0.02 nM
same,LogY,[2],8.20
"O=C(CCCN1CCC(O)(c2ccc(Cl)cc2)CC1)c1ccc(F)cc1 [Haloperidol, haloperidol, reference compound]",percentage of animals presenting catalepsy,"[1]; 0.2 mg/kg, 30 min after administration",0%
same,percentage of animals presenting catalepsy,"[1]; 0.2 mg/kg, 60 min after administration",70%
same,percentage of animals presenting catalepsy,"[1]; 0.2 mg/kg, 90 min after administration",100%
same,percentage of animals presenting catalepsy,"[1]; 0.2 mg/kg, 120 min after administration",100%
same,percentage of animals presenting catalepsy,"[1]; 0.2 mg/kg, 180 min after administration",100%

# Reference: patent US6710041B2, “Pyrrolo[2,1-B][3,1] benzothiazepines and their use for the preparation of medicaments with antipsychotic activity” (Sigma-Tau Industrie Farmaceutiche Riunite S.p.A., priority 2003, dated 2004)
